Measured values from US20130102009A1, “SIRTUIN ACTIVATORS AND ACTIVATION ASSAYS” (priority 2010, published 2013).

How the values were obtained:
[1] = target: TAMRA-peptide; experiment: ITC binding of STACs to TAMRA-peptide; conditions: 26° C., pH 7.3, read-out: Kd for the binding of activator to TAMRA-peptide
Protocol: (§1) ITC experiments were performed using either a VP-ITC system or iTC200 system (MicroCal) at 26° C. in a buffer composed of 137 mM NaCl, 2.7 mM KCl, 1 mM MgCl2, 2 mM TCEP, 5% (v/v) glycerol and 50 mM HEPES-NaOH, pH 7.3. SIRT1(183-664) was purified and dialyzed against the buffer, centrifuged, and degassed before the experiment. The peptide and compounds were dissolved in the final dialysis buffer and their pH values were adjusted to match that of the protein solution. […] To characterize this interaction using the iTC200 system, 1 mM TAMRA-peptide was injected in 20 aliquots of 2 μL, (except the first injection, which was 0.5 μL) into a 0.202 mL sample cell containing 100 μM STAC. For STACs with poor solubility, the concentrations were adjusted accordingly. […] In all cases, data was corrected for the heat of dilution and fitted using a nonlinear least-squares routine using a single-site binding model with Origin for ITC v7.0383 (Microcal) with the stoichiometry (n), the enthalpy of the reaction (ΔH) and the association constant (Ka) calculated.

[2] = target: T1, SIRT1 (Homo sapiens, UniProt Q96EB6); experiment: Mass spectrometry based SIRT1 activation assay (TAMRA/5TMR-labeled 20mer peptide); format: biochemical
T1 sequence (Q96EB6 1-747): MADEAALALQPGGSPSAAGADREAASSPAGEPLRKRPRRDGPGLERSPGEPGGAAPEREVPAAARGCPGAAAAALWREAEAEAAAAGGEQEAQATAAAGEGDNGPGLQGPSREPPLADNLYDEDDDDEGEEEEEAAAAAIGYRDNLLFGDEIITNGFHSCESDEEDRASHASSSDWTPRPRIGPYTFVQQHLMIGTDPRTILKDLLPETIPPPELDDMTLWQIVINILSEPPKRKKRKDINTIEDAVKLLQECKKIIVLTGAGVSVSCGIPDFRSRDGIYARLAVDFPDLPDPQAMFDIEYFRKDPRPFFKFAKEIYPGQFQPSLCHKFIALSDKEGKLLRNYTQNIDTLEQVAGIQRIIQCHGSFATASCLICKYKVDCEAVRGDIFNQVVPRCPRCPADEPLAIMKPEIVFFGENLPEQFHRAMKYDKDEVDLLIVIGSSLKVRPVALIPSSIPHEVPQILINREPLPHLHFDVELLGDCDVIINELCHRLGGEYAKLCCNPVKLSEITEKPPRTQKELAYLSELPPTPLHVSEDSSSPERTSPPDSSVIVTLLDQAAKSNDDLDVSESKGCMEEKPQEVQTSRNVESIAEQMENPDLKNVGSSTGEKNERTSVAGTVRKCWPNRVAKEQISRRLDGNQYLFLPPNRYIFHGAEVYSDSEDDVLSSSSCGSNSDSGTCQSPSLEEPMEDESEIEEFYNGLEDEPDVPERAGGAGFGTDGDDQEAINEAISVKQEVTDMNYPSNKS
In short: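 N-terminal His-tagged human SIRT1 from E. coli BL21(DE3), 10 nM, incubated 25 min at 25° C with 0.5 μM biotin/5TMR-labeled acetylated p53-derived 20mer peptide and 120 μM βNAD+ in Tris-acetate pH 8 buffer with DTT and BSA. Formic acid stop; MS quantifies acetylated vs deacetylated peptide. EC1.5 = concentration giving 150% activation.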

[3] = target: T1, SIRT1; experiment: Mass spectroscopic kinetic assay of SIRT1-catalyzed deacetylation of 20mer peptides; format: biochemical; conditions: substrate TAMRA-peptide
Protocol: Bovine glutamate dehydrogenase (GDH), α-ketoglutarate, NADH and NAD^+ were from Sigma Chemical Company. […] The nicotinamidase PNC1 was prepared as described by Denu and colleagues (Smith et al. (2009) Anal Biochem 394, 101-109). Our collection of approximately 5,000 SIRT1 activators was screened using the BioTrove mass spectrometry system, as previously described (Milne et al. (2007) Nature 450, 712-716). […] Compounds were present at 10 μM, and the assays were conducted in a pH 7.4 buffer containing 150 mM Tris, 5 mM DTT, 1% DMSO, and 0.025% BSA. To determine the interaction of STACs with SIRT1 two kinetic methods were employed. […] (2007) Nature 450, 712-716). The other, used with peptides of general structure […], used a continuous, enzyme-coupled method reported previously (Smith et al. (2009) Anal Biochem 394, 101-109), in which the SRT1 product nicotinamide is first converted into nicotinic acid and ammonia by the action of PNC1, and the ammonia then used by GDH to convert α-ketoglutarate into glutamate. This reaction occurs with oxidation of NADH to NAD^+ which is accompanied by a change in absorbance at 340 nm (Δε340=-6,200 M^-1 cm^-1). Activator titrations were plotted as relative velocity (i.e., the ratio of vx, velocity in the presence of activator X, to vo, velocity in the absence of activator) vs. [X]o, initial concentration of activator, and fit by nonlinear least-squares to the mechanism-independent expression for enzyme activation of […] the maximum relative velocity (i.e., vx/vo at infinite [X]o) and EC50 is the activator concentration at which vx/vo=(RVmax-1)/2. EC50 is a function of the kinetic mechanisms of both catalysis and activation, and the concentrations of substrates.

[4] = target: Ac-Arg-His-Lys-Lys^Ac-AMC; experiment: ITC binding of STACs to Ac-Arg-His-Lys-Lys^Ac-X, X=AMC; conditions: 10% DMSO for SRT1720, SRT2183 and 10, no cosolvent for SRT1460
Protocol: as §1, with “calculated. Table 2 summarizes Kd values for the binding of STACs to […]. Note that except for SRT1460, the solubility of the compounds required that these ITC experiments be done in solutions containing 10% DMSO.” for “calculated.”

[5] = target: Ac-Arg-His-Lys-Lys^Ac-NH2; experiment: ITC binding of STACs to Ac-Arg-His-Lys-Lys^Ac-X, X=NH2; conditions: 10% DMSO for SRT1720, SRT2183 and 10, no cosolvent for SRT1460
Protocol: as §1, with “calculated. Table 2 summarizes Kd values for the binding of STACs to […]. Note that except for SRT1460, the solubility of the compounds required that these ITC experiments be done in solutions containing 10% DMSO.” for “calculated.”

[6] = target: Ac-Arg-His-Lys-Lys^Ac-Phe-NH2; experiment: ITC binding of STACs to Ac-Arg-His-Lys-Lys^Ac-X, X=PheNH2; conditions: 10% DMSO for SRT1720, SRT2183 and 10, no cosolvent for SRT1460
Protocol: as §1, with “calculated. Table 2 summarizes Kd values for the binding of STACs to […]. Note that except for SRT1460, the solubility of the compounds required that these ITC experiments be done in solutions containing 10% DMSO.” for “calculated.”

[7] = target: Ac-Arg-His-Lys-Lys^Ac-Trp-NH2; experiment: ITC binding of STACs to Ac-Arg-His-Lys-Lys^Ac-X, X=TrpNH2; conditions: 10% DMSO for SRT1720, SRT2183 and 10, no cosolvent for SRT1460
Protocol: as §1, with “calculated. Table 2 summarizes Kd values for the binding of STACs to […]. Note that except for SRT1460, the solubility of the compounds required that these ITC experiments be done in solutions containing 10% DMSO.” for “calculated.”

[8] = target: T1, SIRT1; experiment: Continuous PNC1-GDH-coupled assay of SIRT1-catalyzed deacetylation of Ac-Arg-His-Lys-Lys^Ac-X with STACs; format: biochemical; conditions: [SRT]o = 5 μM, [peptide]o ≦ Km, [NAD+] = 70 μM; for Relative Velocity, X=AMC: Ac-Arg-His-Lys-Lys^Ac-AMC; for Relative Velocity, X=Ala-NH2: Ac-Arg-His-Lys-Lys^Ac-Ala-NH2; for Relative Velocity, X=NH2: Ac-Arg-His-Lys-Lys^Ac-NH2; for Relative Velocity, X=Phe-NH2: Ac-Arg-His-Lys-Lys^Ac-Phe-NH2
Protocol: Bovine glutamate dehydrogenase (GDH), α-ketoglutarate, NADH and NAD^+ were from Sigma Chemical Company. […] The nicotinamidase PNC1 was prepared as described by Denu and colleagues (Smith et al. (2009) Anal Biochem 394, 101-109). To determine the interaction of STACs with SIRT1 two kinetic methods were employed. […] (2007) Nature 450, 712-716). The other, used with peptides of general structure […], used a continuous, enzyme-coupled method reported previously (Smith et al. (2009) Anal Biochem 394, 101-109), in which the SRT1 product nicotinamide is first converted into nicotinic acid and ammonia by the action of PNC1, and the ammonia then used by GDH to convert α-ketoglutarate into glutamate. This reaction occurs with oxidation of NADH to NAD^+ which is accompanied by a change in absorbance at 340 nm (Δε340=-6,200 M^-1 cm^-1). The kinetic experiments used to characterize activators were run on a Perkin Elmer Lambda 25 spectrophotometer equipped with a water-jacketed, eight-cell changer maintained at 25° C. In a typical kinetic experiment, all components of the reaction solution except SIRT1 were added to a 1 mL cuvette and allowed to reach thermal equilibrium. Final concentrations of the coupling system components were: 1 μM PNC1, 0.23 mM NADH, 3.4 mM α-ketoglutarate, and 20 U/mL bovine GDH. This solution also contained peptide substrate, NAD^.0., and activator, at concentrations indicated in the text. The final DMSO concentration was kept constant at 1%, and the buffer used in these experiments was 50 mM HEPES, 150 mM NaCl, pH 7.5. While the system was reaching thermal equilibrium, the absorbance was monitored to provide an accurate estimate of the background rate, which was subtracted from the reaction rate after the addition of SIRT1. Activator titrations were plotted as relative velocity (i.e., the ratio of vx, velocity in the presence of activator X, to vo, velocity in the absence of activator) vs. [X]o, initial concentration of activator, and fit by nonlinear least-squares to the mechanism-independent expression for enzyme activation of […] the maximum relative velocity (i.e., vx/vo at infinite [X]o) and EC50 is the activator concentration at which vx/vo=(RVmax-1)/2. EC50 is a function of the kinetic mechanisms of both catalysis and activation, and the concentrations of substrates.

| Structure (SMILES) | Kd [1] [µM] | Emax ([2]; 25 min, percent maximum fold activation of SIRT1, read-out: % FOLD ACT.) [%] | EC1.5 uM ([2]; concentration that results in 150% activation of SIRT1) | EC1.5 for activation of SIRT1 ([3]; concentration for 1.5-fold activation) [µM] | EC50 ([3]; fit to eq (1), read-out: EC50 (Kx) for activation of SIRT1-catalyzed deacetylation of TAMRA-peptide) [nM] | Kd [4] [µM] | Kd [5] [µM] | Kd [6] [µM] | Kd [7] [µM] | Kd for binding to Ac-Arg-His-Lys-Lys^Ac-X, X=TrpNH2 [7] | Relative Velocity, X=AMC [8] | Relative Velocity, X=Ala-NH2 [8] | Relative Velocity, X=NH2 [8] | Relative Velocity, X=Phe-NH2 [8] | Relative Velocity, X=Trp-NH2 ([8]; Ac-Arg-His-Lys-Lys^Ac-Trp-NH2) |
| --- | --- | --- | --- | --- | --- | --- | --- | --- | --- | --- | --- | --- | --- | --- | --- |
| O=C(Nc1ccccc1-c1nc2cc(CCC3CCNCC3)cnc2s1)c1cccc(C2CCNC2)c1 (centres unmarked) [Compound 7] | 36 | ≥ 200 | A (EC1.5≦1 μM) | 0.1 | 500 |  |  |  |  |  |  |  |  |  |  |
| O=C(Nc1ccccc1-c1cn2c(CN3CCNCC3)csc2n1)c1cnc2ccccc2n1 [SRT1720] |  |  |  |  |  | > 500 | > 500 | > 500 | 150 | binds | 1.0 | 0.9 | 1.1 | 0.9 |  |
| O=C(Nc1ccccc1-c1cn2c(CN3CC[C@@H](O)C3)csc2n1)c1ccc2ccccc2c1 [SRT2183] |  |  |  |  |  | > 50 | > 50 | > 50 | > 50 |  | 1.1 | 0.8 | 1.2 | 1.0 | 1.0 |
